Assay results reported in patent US20100204222A1, “PYRIDOPYRIMIDINE DERIVATIVES AS P13 KINASE INHIBITORS” (GlaxoSmithKline, LLC, priority 2007, published 2010).

Target: T1, PI3Kα (Homo sapiens, UniProt P42336)
T1 construct: His; made in house
Assay: PI3K alpha TR-FRET assay / PI3K alpha Leadseeker SPA assay
Type: biochemical
Conditions: in at least one experimental run; read-out: IC50 value against PI3Kα
Method: Compounds of the present invention were tested according to the following assays and found as inhibitors of PI3 kinases, particularly PI3Kα. The exemplified compounds were tested and found active against PI3Kα. The IC50's ranged from about 1 nM to 10 μM.
The PI3-Kinase assay has been developed and optimized from a kit produced by Upstate (Millipore). Briefly, this kit contains a biotinylated PIP3 which forms a HTRF (homogeneous time-resolved fluorescence energy transfer) complex when mixed with a Europium labeled anti-GST monoclonal antibody, a GST tagged pleckstrin homology (PH) domain, and Streptavidin-Allophycocyanin (APC). The unlabeled PIP3 produced by PI 3-Kinase activity displaces biotin-PIP3 from the complex resulting in a loss of energy transfer and thus a decrease in signal. Millipore, PI 3-Kinase (human) HTRF™ Assay, technical document associated with catalog# 33-017
Compounds are serially diluted (3-fold in 100% DMSO) across a polypropylene 120 μL mother plate from column 1 to column 12 and column 13 to column 24, leaving columns 6 and 18 containing only DMSO to yield 11 concentrations for each test compound. Once titrations are made, 0.1 μL is transferred to the assay plates (Greiner 784075). This assay plate contains three controls: column 6 with DMSO, and column 18 with alternating 20 μM wortmannin and 40 μM PIP3. […] The PIP3 control is dispensed into the plate manually via a matrix pipettor, 1 μL of 200 μM PIP3 in 1× Reaction buffer to wells 18 B, D, F, H, J, L, N, P.
The PI3-Kinase assay has been developed and optimized from a kit produced by Upstate (Millipore). The assay kit (cat: 33-017) contains seven reagents: 1) 4× Reaction Buffer, 2) PIP2 (1 mM), 3) Stop A, 4) Stop B, 5) Detection Mix A, 6) Detection Mix B, 7) Detection Mix C. In addition the following items were obtained or purchased, PI3Kinase (prepared in-house), 4×PI3K Detection Buffer (Millipore), dithiothreitol (Sigma, D-5545), Adenosine-5′-triphosphate (ATP, Sigma, A-6419), PIP3 (1,2-dioctanoyl-sn-glycero-3[phosphoinositil-3,4,5-triphosphate]tetraammonium salt (Avanti polar lipids, 850186P), DMSO (Sigma, 472301), Wortmannin (Sigma, W-1628).
Prepare 1×PI3Kinase Reaction Buffer by diluting stock 1:4 with de-ionized water, freshly prepared DTT is added at a final concentration of 5 mM on the day of use. Enzyme addition and compound preincubation is initiated by the addition of 2.5 μL of 2× enzyme solution, PI3K alpha in 1× reaction buffer, to all wells using a Multidrop Combi. Plates are incubated at room temperature for 15 minutes. Substrate addition and reaction initiation is completed by the addition of 2.5 μL of 2× substrate solution, PIP2 and ATP in 1× reaction buffer, to all wells using a Multidrop Combi. […] Incubate one hour, evaluate the HTRF signal on the Envision plate reader. […]

T1 sequence (P42336 whole entry): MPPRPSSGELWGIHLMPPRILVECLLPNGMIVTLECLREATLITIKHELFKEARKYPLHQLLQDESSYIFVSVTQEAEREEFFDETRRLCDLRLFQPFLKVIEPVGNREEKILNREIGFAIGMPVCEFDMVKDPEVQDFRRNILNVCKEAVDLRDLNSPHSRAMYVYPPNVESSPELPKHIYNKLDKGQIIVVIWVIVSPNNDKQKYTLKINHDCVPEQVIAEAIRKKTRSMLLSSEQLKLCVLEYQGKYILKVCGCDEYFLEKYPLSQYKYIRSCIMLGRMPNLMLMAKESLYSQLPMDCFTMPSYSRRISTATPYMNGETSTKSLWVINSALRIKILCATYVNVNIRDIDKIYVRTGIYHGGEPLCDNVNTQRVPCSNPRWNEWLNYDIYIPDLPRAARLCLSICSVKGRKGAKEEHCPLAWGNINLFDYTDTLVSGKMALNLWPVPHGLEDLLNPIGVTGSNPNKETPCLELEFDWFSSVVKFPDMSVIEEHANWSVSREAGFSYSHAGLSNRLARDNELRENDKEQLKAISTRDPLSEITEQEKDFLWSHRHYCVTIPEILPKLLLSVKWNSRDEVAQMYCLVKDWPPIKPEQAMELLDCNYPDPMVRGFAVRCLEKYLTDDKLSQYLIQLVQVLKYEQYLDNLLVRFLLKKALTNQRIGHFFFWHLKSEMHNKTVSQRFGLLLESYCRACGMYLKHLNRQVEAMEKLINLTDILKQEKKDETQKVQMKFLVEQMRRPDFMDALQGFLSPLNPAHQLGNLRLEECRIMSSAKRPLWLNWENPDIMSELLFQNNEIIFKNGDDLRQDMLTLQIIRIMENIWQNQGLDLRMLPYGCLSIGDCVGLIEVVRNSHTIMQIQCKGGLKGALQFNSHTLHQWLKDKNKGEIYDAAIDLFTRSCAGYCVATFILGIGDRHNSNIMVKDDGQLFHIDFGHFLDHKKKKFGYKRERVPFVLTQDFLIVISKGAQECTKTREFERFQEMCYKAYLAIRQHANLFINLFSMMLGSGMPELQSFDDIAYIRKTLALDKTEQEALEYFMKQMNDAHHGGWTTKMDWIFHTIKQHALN
T1 sequence (P27986 whole entry partner): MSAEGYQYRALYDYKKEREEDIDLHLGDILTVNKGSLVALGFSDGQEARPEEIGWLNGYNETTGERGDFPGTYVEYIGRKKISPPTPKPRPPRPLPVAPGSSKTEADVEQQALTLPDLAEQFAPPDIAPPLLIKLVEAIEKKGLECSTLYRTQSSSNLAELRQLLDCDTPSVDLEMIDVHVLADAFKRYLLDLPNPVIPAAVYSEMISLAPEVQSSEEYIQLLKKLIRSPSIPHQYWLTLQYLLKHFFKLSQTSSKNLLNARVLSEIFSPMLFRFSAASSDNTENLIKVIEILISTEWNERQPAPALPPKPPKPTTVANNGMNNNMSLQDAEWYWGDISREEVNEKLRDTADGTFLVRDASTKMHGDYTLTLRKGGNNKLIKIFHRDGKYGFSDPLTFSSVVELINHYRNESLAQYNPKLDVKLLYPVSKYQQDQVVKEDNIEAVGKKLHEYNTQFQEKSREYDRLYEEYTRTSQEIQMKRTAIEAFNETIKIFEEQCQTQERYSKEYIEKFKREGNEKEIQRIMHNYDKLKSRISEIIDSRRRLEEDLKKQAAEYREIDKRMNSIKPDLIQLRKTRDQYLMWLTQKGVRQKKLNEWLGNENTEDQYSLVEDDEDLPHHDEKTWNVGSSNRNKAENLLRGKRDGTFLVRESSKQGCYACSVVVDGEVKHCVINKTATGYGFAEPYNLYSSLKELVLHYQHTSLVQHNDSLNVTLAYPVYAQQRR

| IC50 [nM] | SMILES |
| --- | --- |
| 2 | CN(C)c1ncnc2ccc(-c3cncc(NS(=O)(=O)c4ccccc4)c3)nc12 [Example 1, N-{5-[4-(dimethylamino)pyrido[3,2-d]pyrimidin-6-yl]-3-pyridinyl}benzenesulfonamide] |
| 0.7 | O=S(=O)(Nc1cncc(-c2ccc3ncnc(N4CCOCC4)c3n2)c1)c1ccccc1 [Example 2, N-{5-[4-(4-morpholinyl)pyrido[3,2-d]pyrimidin-6-yl]-3-pyridinyl}benzenesulfonamide] |
| 0.5 | COc1ncc(-c2ccc3ncnc(N4CCOCC4)c3n2)cc1NS(=O)(=O)C1CC1 [Example 5, N-{2-(methyloxy)-5-[4-(4-morpholinyl)pyrido[3,2-d]pyrimidin-6-yl]-3-pyridinyl}cyclopropanesulfonamide] |
| 0.02 | O=S(=O)(Nc1cc(-c2ccc3ncnc(N4CCOCC4)c3n2)cnc1Cl)c1ccc(F)cc1F [Example 7, N-{2-chloro-5-[4-(4-morpholinyl)pyrido[3,2-d]pyrimidin-6-yl]-3-pyridinyl}-2,4-difluorobenzenesulfonamide] |
